Source: US20060013897A1, “Compositions for cancer therapy saponins or sapogenins” (priority 2002, published 2006)

Tests used:
Type in all cases: cell-based
[1] = tested on: mouse melanoma cells (B16); experiment: MTT cytotoxicity assay, B16 cells; conditions: 10 μg/mL (individual components at similar concentrations), MTT at 24 hours
Excerpt: (§1) Preparation of Compositions: A process of preparing a composition comprising of Rh2, aPPD, and aPPT saponins and/or sapogenins from plants selected from the group consisting of panax ginseng, panax quinguefol and panax notoginseng, or a sapogenin source from some other plant, and proceeding according to the following steps: • (a) mixing the ginsenoside extract with water; • (b) (i) mixing the ginsenoside extract and water with a short-chain (1-5 carbon) alkali-metal alcoholate solution or a hydroxide-ethanol solution to produce a mixture; and • (ii) placing the resultant mixture in a reaction tank so that the resultant mixture can undergo chemical reactions at a temperature between 240 and 300° C. and at a pressure between 3.5 and 8.4 MPa; or • (c) (i) alternatively, mixing the ginsenosides extract with ethanol; • (ii) mixing the extract and ethanol with alkali-metal alcoholates solution to produce a mixture, and • (iii) placing the resultant mixture in a reaction tank so that the resultant mixture can undergo chemical reactions at a temperature between 240 and 300° C. and at a pressure between 3.5 and 8.4 MPa; and • (d) after the reaction is completed, collecting an intermediate product of a mix of saponins and/or sapogenins from the ethanol mixture. Cytotoxicity was measured using a standard microculture tetrazolium assay (MTT) (Alley, M C et al, Cancer Research 48:589-601, 1988). Exponentially growing cultures of tumor cells, including multi-drug resistant cell lines, were used to make microtiter plate cultures. Cells were seeded at 1.2×10^3 cells per well in 96-well plates, and grown overnight at 37° C. Test compounds were then added. Cells were treated for 24 hours. To determine the number of viable cells in each well, the MTT dye was added (3-(4,5-dimethylthiazol-2-yl)-2,5-diphenyltetrazolium bromide in saline) in accordance with the standard practice known in the art.
Cultured mouse melanoma cells (B16) were treated with the saponins and sapogenins Rh2, aPPT, and aPPD, individually, at various concentrations. […]

[2] = tested on: human glioma tumor cells (U87); experiment: MTT cytotoxicity assay, U87 cells; conditions: 15 μg/mL (individual components at similar concentrations), MTT at 24 hours
Excerpt: as §1
Cultured human glioma tumor cells (U87) were treated with the saponins and sapogenins Rh2, aPPT, and aPPD, individually, at various concentrations. […]

[3] = tested on: human breast cancer cells (MCF7); experiment: MTT cytotoxicity assay, MCF7 cells; conditions: 15 μg/mL (individual components at similar concentrations), MTT at 24 hours
Excerpt: as §1
Cultured human breast cancer cells (MCF7) were treated with the saponins and sapogenins Rh2, aPPT, and aPPD, individually, at various concentrations. […]

Structure (SMILES) | cancer cells killed [1] [%] | cancer cells killed [2] [%] | cancer cells killed [3] [%]
CC(C)=CCC[C@](C)(O)[C@H]1CC[C@]2(C)[C@@H]1[C@H](O)C[C@@H]1[C@@]3(C)CC[C@H](O[C@@H]4O[C@H](CO)[C@@H](O)[C@H](O)[C@H]4O)C(C)(C)[C@@H]3CC[C@]12C [Rh2, 3-O-β-D-glucopyranosyl-20(s)-protopanaxadiol] | 56 | 64 | 68
CC(C)=CCC[C@@](C)(O)[C@H]1CC[C@]2(C)[C@@H]1[C@H](O)C[C@@H]1[C@@]3(C)CC[C@H](O)C(C)(C)[C@@H]3CC[C@]12C [aPPD, aglycon protopanaxadiol] | 44 | 52 | 69
CC(C)=CCC[C@](C)(O)[C@H]1CC[C@]2(C)[C@@H]1[C@H](O)C[C@@H]1[C@@]3(C)CC[C@H](O)C(C)(C)[C@@H]3[C@@H](O)C[C@]12C [aPPT, aglycon protopanaxatriol] | 47 | 29 | 68
